{
  "source": "paper PMC3960879",
  "about": "(Biology, 2013)",
  "key": {"[1]": {"target": "F17eG receptor-binding domain", "assay": "Surface plasmon resonance steady-state affinity, immobilized F17eG", "set-up": "species or system Escherichia coli", "conditions": "SPR steady state, 25 °C, pH 7.4; read-out: Affinity range (Kd class), F17eG", "method": "(§1) The affinity profiles were determined by surface plasmon resonance (SPR) measurements using a BiaCore 3000 instrument (GE Healthcare). […] The proteins were covalently immobilized on CM5 sensor chips (Biacore AB) to an average density of 2000 RU (resonance units in pg/mm^2). On each chip, one flow cell was coated with a camel single domain antibody for use as a reference cell. The other three flow cells (Fc2, Fc3 and Fc4) were coated with three different F17G variants. Carbohydrate concentrations ranging from 10 µM to 10 mM in running buffer (20 mM Hepes, pH 7.4; 150 mM NaCl; 3 mM EDTA and 0.005% surfactant Tween 20) were incubated for one minute on all flow cells simultaneously, at 25 °C and at a flow rate of 30 µL/min. Complete dissociation of the carbohydrates in running buffer was verified before starting a new binding cycle. All binding cycles were performed in duplicate, including a zero concentration cycle (injection of pure running buffer). All analysis was done using the BIAeval software. In each case the equilibrium resonance signal from the reference cell was subtracted from that of the various F17G flow cells (2-1, 3-1, 4-1). A Langmuir binding isotherm with a 1:1 stoichiometry was fitted to the data, from which the equilibrium dissociation constants, Kd, were obtained."}, "[2]": {"target": "F17fG receptor-binding domain (Escherichia coli, UniProt Q9RH91)", "sequence (Q9RH91 23-198)": "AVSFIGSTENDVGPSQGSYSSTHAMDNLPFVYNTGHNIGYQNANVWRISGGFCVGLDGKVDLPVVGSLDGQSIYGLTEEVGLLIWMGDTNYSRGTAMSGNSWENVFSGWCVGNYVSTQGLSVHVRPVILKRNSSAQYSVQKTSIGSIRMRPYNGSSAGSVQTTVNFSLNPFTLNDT", "assay": "Surface plasmon resonance steady-state affinity, immobilized F17fG", "method": "as §1"}, "F17eG lectin domain": {"tested_on": "F17eG lectin domain", "assay": "CFG mammalian printed glycan array version 2 (experiment 400), F17eG", "assay_type": "binding, Escherichia coli", "conditions": "CFG glycan array version 2; F17G at 200 µg/mL; SEM in parentheses", "excerpt": "(§2) The slide was dried under a stream of nitrogen."}, "F17bG lectin domain": {"target": "F17bG lectin domain (Escherichia coli, UniProt Q47200)", "sequence (Q47200 23-199)": "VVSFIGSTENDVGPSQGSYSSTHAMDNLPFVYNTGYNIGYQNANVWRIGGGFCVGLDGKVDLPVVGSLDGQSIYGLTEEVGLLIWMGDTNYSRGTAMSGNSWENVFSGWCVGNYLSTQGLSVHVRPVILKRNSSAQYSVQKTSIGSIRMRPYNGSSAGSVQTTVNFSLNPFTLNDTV", "conditions": "CFG glycan array version 2; F17G at 200 µg/mL; SEM in parentheses", "method": "(§3) A microarray presenting 264 different glycans (mammalian printed array version 2) was used to evaluate if the F17G variant lectin domains differ in the range of glycan receptors that they recognize, thereby establishing tropism. The microarray was set up within the Consortium for Functional Glycomics (CFG) ([20], and supplemental data). Binding of F17G (200 µg/mL) was detected using anti-F17G polyclonal rabbit IgG (10 µg/mL), followed by fluorescently labelled goat anti-rabbit polyclonal antibodies (IgG-488, 5 µg/mL).\n(§4) A microarray presenting 264 different glycans (mammalian printed array version 2 from the CFG, experiment 400) was used to evaluate whether the F17G variant lectin domains differ in the range of glycan receptors that they can recognize, thereby establishing strain-dependent tropism. […] The glycan array screening has been repeated for F17aG only on printed array version 4.1 (experiment 2053) (Figure 1).\n(§5) Printed array version 2 at the Consortium for Functional Glycomics was used for glycan array screening of the variant F17G receptor binding domains. Slides were printed, with six replicates for each glycan, using glycan spotting concentrations of 100 μM, at the Consortium Carbohydrate Synthesis/Protein Expression Core D located at the Scripps Research Institute onto Schott Nexterion H slides (Schott Cat. No. 1070936B). Slide conditioning: preprinted slides were soaked in deionized water for 5 minutes at room temperature and dried under a stream of nitrogen. TSM buffer (20 mM Tris-HCl, pH 7.4, or MOPS 20 mM; 150 mM NaCl; 2 mM CaCl2, 2 mM MgCl2) was used as wash buffer (TSM buffer + 0.05% Tween 20) or binding buffer (TSM buffer + 0.05% Tween 20 + 1% BSA). (1) F17G was diluted to 200 μg/mL (Figure 1) in TSM binding buffer. (2) 50 μL of F17G was applied to the printed surface and coverslipped. (3) The slide was incubated, protected from light, in a humidified chamber for 1 hour at RT. (4) The slide was washed once in TSM wash buffer. 50 μL of the anti-F17G (10 μg/mL) polyclonal rabbit IgG were applied, coverslipped and incubated for 1 h at RT. (5) The slide was washed once in TSM wash buffer. Fifty μL of fluorescently labelled secondary goat anti-rabbit polyclonal antibodies (IgG-488, 5 µg/mL) were applied, coverslipped and incubated for 1 h at RT. (6) Slide was removed, followed by the coverslip, and washed for 10 s each in TSM wash buffer, TSM wash buffer lacking Tween 20, and deionized water. The slide was dried under a stream of nitrogen. (7) The binding image was read in a Perkin Elmer Microscanarray XL4000 scanner and tiff file of image stored. (8) Image analysis was performed using Imagene (V.6) image analysis software. (9) Raw data results files were generated in Excel format and uploaded to the Consortium database as .dat files. (10) Imagene data was uploaded to the database as .txt files."}, "F17aG lectin domain": {"target": "F17aG lectin domain (Escherichia coli, UniProt Q99003)", "sequence (Q99003 23-199)": "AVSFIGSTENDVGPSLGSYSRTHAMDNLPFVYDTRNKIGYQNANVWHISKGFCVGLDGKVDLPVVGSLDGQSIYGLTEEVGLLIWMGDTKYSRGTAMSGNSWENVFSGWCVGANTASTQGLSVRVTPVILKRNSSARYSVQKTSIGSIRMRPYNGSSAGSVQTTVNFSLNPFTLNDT", "conditions": "CFG glycan array version 2; F17G at 200 µg/mL; SEM in parentheses", "method": "as §3, §4, §5"}, "F17dG lectin domain": {"target": "F17dG lectin domain (Escherichia coli, UniProt Q47199)", "sequence (Q47199 23-199)": "as the sequence (Q99003 23-199) above, with L16P, D33N, R35G, K37N, H47R, K90N counted along it", "conditions": "CFG glycan array version 2; F17G at 200 µg/mL; SEM in parentheses", "method": "as §3, §4, §5"}, "F17fG lectin domain": {"tested_on": "F17fG lectin domain", "assay": "CFG mammalian printed glycan array version 2 (experiment 400), F17fG", "assay_type": "binding, Escherichia coli", "conditions": "CFG glycan array version 2; F17G at 200 µg/mL; SEM in parentheses", "excerpt": "as §2"}, "[3]": {"target": "T1, F17aG receptor-binding domain (Escherichia coli, UniProt Q99003)", "T1 construct": "variants of the lectin domains with oligolysine (4Lys) tails have been constructed; made in house; host or cells: E. coli (periplasm)", "T1 sequence (Q99003 23-199)": "as the sequence (Q99003 23-199) above", "assay": "biochemical", "conditions": "F17aG, SPR steady state, 25 °C, pH 7.4", "method": "as §1"}},
  "note": "Like-named read-outs stand apart in the source and are kept apart here.",
  "data": [
    {"molecule": "Neu5Acα2,3Galβ1,4GlcNAcβ1,2 Man", "values": [
      {"measurement": "Kd", "setting": "[1]", "result": "10 to 100", "unit": "mM"}
    ]},
    {"molecule": "Neu5Acα2,3Galβ1,3(Neu5Acα2,6)GlcNAcβ1,3Gal β1,4Glc", "values": [
      {"measurement": "Kd", "setting": "[2]; SPR steady state, 25 °C, pH 7.4, read-out: Affinity range (Kd class), F17fG", "result": "> 100", "unit": "mM"}
    ]},
    {"molecule": "GlcNAcβ1,2Galβ1,3GalNAcα-Sp8", "values": [
      {"measurement": "Relative Fluorescence Units (RFU), averaged over six replicates, F17eG", "setting": "F17eG lectin domain", "result": "305 (148) RFU"},
      {"measurement": "Relative Fluorescence Units (RFU), averaged over six replicates, F17bG", "setting": "F17bG lectin domain", "result": "1,016 (239) RFU"},
      {"measurement": "Relative Fluorescence Units (RFU), averaged over six replicates, F17aG", "setting": "F17aG lectin domain", "result": "5,082 (4,924) RFU"},
      {"measurement": "Relative Fluorescence Units (RFU), averaged over six replicates, F17dG", "setting": "F17dG lectin domain", "result": "75 (35) RFU"},
      {"measurement": "Relative Fluorescence Units (RFU), averaged over six replicates, F17fG", "setting": "F17fG lectin domain", "result": "563 (125) RFU"}
    ]},
    {"molecule": "CC(=O)N[C@H]1[C@H](O[C@H]2[C@@H](O)[C@@H](CO)O[C@H](OCCCN)[C@@H]2NC(C)=O)O[C@H](CO)[C@@H](O)[C@@H]1O", "note": "[GlcNAcβ1,3GalNAcα-Sp8]", "values": [
      {"measurement": "Relative Fluorescence Units (RFU), averaged over six replicates, F17eG", "setting": "F17eG lectin domain", "result": "33,330 (7,321) RFU"},
      {"measurement": "Relative Fluorescence Units (RFU), averaged over six replicates, F17bG", "setting": "F17bG lectin domain", "result": "15,182 (2,925) RFU"},
      {"measurement": "Relative Fluorescence Units (RFU), averaged over six replicates, F17aG", "setting": "F17aG lectin domain", "result": "25,971 (3,174) RFU"},
      {"measurement": "Relative Fluorescence Units (RFU), averaged over six replicates, F17dG", "setting": "F17dG lectin domain", "result": "6,635 (2,735) RFU"},
      {"measurement": "Relative Fluorescence Units (RFU), averaged over six replicates, F17fG", "setting": "F17fG lectin domain", "result": "10,999 (2,929) RFU"}
    ]},
    {"molecule": "CC(=O)N[C@@H]1[C@@H](O)[C@H](O)[C@@H](CO)O[C@H]1O", "note": "[GlcNAc, N-acetylglucosamine]", "values": [
      {"measurement": "Kd", "setting": "[3]; Affinity range (Kd class)", "result": "1 to 10", "unit": "mM"},
      {"measurement": "Kd", "setting": "[3]; dissociation constant Kd, good fit for at least three related experiments", "result": 1.2, "unit": "mM"},
      {"measurement": "Kd", "setting": "[2]", "result": "1 to 10", "unit": "mM"}
    ]},
    {"molecule": "Galβ1,4GlcNAcβ1,3Galβ1,4Glcβ-Sp0", "values": [
      {"measurement": "Relative Fluorescence Units (RFU), averaged over six replicates, F17eG", "setting": "F17eG lectin domain", "result": "3,942 (857) RFU"},
      {"measurement": "Relative Fluorescence Units (RFU), averaged over six replicates, F17bG", "setting": "F17bG lectin domain", "result": "1,090 (262) RFU"},
      {"measurement": "Relative Fluorescence Units (RFU), averaged over six replicates, F17aG", "setting": "F17aG lectin domain", "result": "391 (24) RFU"},
      {"measurement": "Relative Fluorescence Units (RFU), averaged over six replicates, F17dG", "setting": "F17dG lectin domain", "result": "919 (375) RFU"},
      {"measurement": "Relative Fluorescence Units (RFU), averaged over six replicates, F17fG", "setting": "F17fG lectin domain", "result": "663 (146) RFU"}
    ]},
    {"molecule": "GlcNAcβ1,3Galβ1,3GalNAcα-Sp8", "values": [
      {"measurement": "Relative Fluorescence Units (RFU), averaged over six replicates, F17eG", "setting": "F17eG lectin domain", "result": "47,984 (3,178) RFU"},
      {"measurement": "Relative Fluorescence Units (RFU), averaged over six replicates, F17bG", "setting": "F17bG lectin domain", "result": "10,655 (880) RFU"},
      {"measurement": "Relative Fluorescence Units (RFU), averaged over six replicates, F17aG", "setting": "F17aG lectin domain", "result": "7,713 (866) RFU"},
      {"measurement": "Relative Fluorescence Units (RFU), averaged over six replicates, F17dG", "setting": "F17dG lectin domain", "result": "3,999 (1,481) RFU"},
      {"measurement": "Relative Fluorescence Units (RFU), averaged over six replicates, F17fG", "setting": "F17fG lectin domain", "result": "31,661 (2,807) RFU"}
    ]},
    {"molecule": "CC(=O)N[C@H]1[C@H](OC[C@H]2O[C@H](OCCCN)[C@H](NC(C)=O)[C@@H](O[C@@H]3O[C@H](CO)[C@H](O)[C@H](O)[C@H]3O)[C@H]2O)O[C@H](CO)[C@@H](O)[C@@H]1O", "note": "[Galβ1,3(GlcNAcβ1,6)GalNAcα-Sp8]", "values": [
      {"measurement": "Relative Fluorescence Units (RFU), averaged over six replicates, F17eG", "setting": "F17eG lectin domain", "result": "50,893 (5,540) RFU"},
      {"measurement": "Relative Fluorescence Units (RFU), averaged over six replicates, F17bG", "setting": "F17bG lectin domain", "result": "6,215 (1,046) RFU"},
      {"measurement": "Relative Fluorescence Units (RFU), averaged over six replicates, F17aG", "setting": "F17aG lectin domain", "result": "10,256 (1,410) RFU"},
      {"measurement": "Relative Fluorescence Units (RFU), averaged over six replicates, F17dG", "setting": "F17dG lectin domain", "result": "3,850 (364) RFU"},
      {"measurement": "Relative Fluorescence Units (RFU), averaged over six replicates, F17fG", "setting": "F17fG lectin domain", "result": "3,195 (811) RFU"}
    ]},
    {"molecule": "CC(=O)N[C@H]1[C@H](O[C@H]2[C@@H](O)[C@@H](CO)O[C@@H](OCCCN)[C@@H]2O)O[C@H](CO)[C@@H](O)[C@@H]1O", "note": "[GlcNAcβ1,3Galβ-Sp8]", "values": [
      {"measurement": "Relative Fluorescence Units (RFU), averaged over six replicates, F17eG", "setting": "F17eG lectin domain", "result": "38,836 (5,631) RFU"},
      {"measurement": "Relative Fluorescence Units (RFU), averaged over six replicates, F17bG", "setting": "F17bG lectin domain", "result": "16,310 (1,907) RFU"},
      {"measurement": "Relative Fluorescence Units (RFU), averaged over six replicates, F17aG", "setting": "F17aG lectin domain", "result": "32,288 (4,175) RFU"},
      {"measurement": "Relative Fluorescence Units (RFU), averaged over six replicates, F17dG", "setting": "F17dG lectin domain", "result": "16,277 (9,959) RFU"},
      {"measurement": "Relative Fluorescence Units (RFU), averaged over six replicates, F17fG", "setting": "F17fG lectin domain", "result": "27,648 (1,137) RFU"}
    ]},
    {"molecule": "CC(=O)N[C@H]1[C@H]([C@H](O)[C@H](O)CO)OC(O)(C(=O)O)C[C@@H]1O", "note": "(stereo partly shown) [N-acetylneuraminic acid]", "values": [
      {"measurement": "Kd", "setting": "[3]; Affinity range (Kd class)", "result": "> 100", "unit": "mM"},
      {"measurement": "Kd", "setting": "[2]", "result": "> 100", "unit": "mM"}
    ]}
  ]
}
